Experimental data: paper PMC6021111, “Murine leukemia virus p12 tethers the capsid-containing pre-integration complex to chromatin by binding directly to host nucleosomes in mitosis” (PLoS Pathogens, 2018)

How the values were obtained:
[1] = test system: GST-p12_M63I phosphorylation in 293T cells; assay: Kinase inhibition, GST-p12_M63I phosphorylation (PQ/SR); type: cell-based; details: 3.5 h with nocodazole and 10 μM MG132, LiCl 40 mM, roscovitine 75 μM, kenpaullone 40 μM
Experimental: (§1) Glycogen synthase kinase 3 (GSK3) and cyclin-dependent kinase 5 (CDK5) were predicted to phosphorylate Mo-MLV p12 on S61, by the NetPhos 3.1 kinase prediction algorithm. […] These drugs were tested in our biochemical assays for their ability to reduce GST-p12_M63I phosphorylation and chromatin association. In our assays, cells transiently-expressing GST-p12_M63I were cultured in media containing nocodazole overnight, prior to the addition of the kinase inhibitors. […] After removal of the drugs, cells were immediately washed and lysed for glutathione-sepharose bead pull-down assays. The eluates from the beads were analysed by SDS-PAGE followed by sequential staining with PQ and SR dyes to quantify the phosphorylation levels of GST-p12_M63I. LiCl treatment had little effect on GST-p12_M63I phosphorylation (Fig 7A, lane 2). […] To correlate GST-p12_M63I phosphorylation with its ability to interact with chromatin, we quantified the amounts of H2B in the pull-down eluates by immunoblotting. […] The short period of kinase inhibition used in our assays, may have limited the effects observed on GST-p12_M63I phosphorylation.
(§2) GST-p12 proteins were expressed in 293T cells from pCAGGS/GST-derived plasmids by transient transfection using Turbofect (Thermo Fisher Scientific). Approximately 24 h after transfection, cells were changed into fresh media containing either 400 ng/ml nocodazole (Sigma) or 2 μg/ml aphidicolin (Sigma) and incubated overnight at 37°C. The synchronisation of the cell cultures after drug treatment was assessed by propidium iodide staining and cell cycle phase analysis by flow cytometry. Cells to be used in pull down assays were washed and lysed in 20 mM Tris pH 8.0, 300 mM NaCl, 1 mM EDTA, 10% Glycerol, 1% Triton X-100, protease inhibitors (Roche), phosphatase inhibitors (Merck). Lysis was facilitated by passing the lysates through a 19-gauge needle x7 and sonication, x7 pulses, 30 s ON and 30 s OFF, in an ice bath (Decon FS100). […] ProQ diamond and Sypro ruby staining (Thermo Fisher Scientific) of gels was visualised and quantified on a ChemiDoc imaging system (Bio-Rad). […]

[2] = test system: H2B precipitation with GST-p12_M63I, 293T cells; assay: Kinase inhibition, H2B pull-down with GST-p12_M63I; type: cell-based; details: 3.5 h with nocodazole and 10 μM MG132; roscovitine 75 μM, kenpaullone 40 μM; immunoblot
Experimental: as §1, §2

[3] = test system: Glycogen synthase kinase 3 (GSK3); details: cited from earlier work
[4] = test system: cyclin-dependent kinase 5 (CDK5); parameters: method as in PMID 12534346; details: cited from earlier work
[5] = molecular target: T1, recombinant H3.3 poly-nucleosomes (Homo sapiens, UniProt P62807+P84243+Q93077); assay: Biolayer interferometry, peptide binding to poly-nucleosomes; details: BLI; biotinylated peptide on streptavidin sensor; HEPES pH 7.5, 150 mM NaCl, 25°C
T1 construct: purchased Active Motif
From the text: To identify whether p12 proteins also interact directly with nucleosomes, we used biolayer interferometry (BLI) to probe the binding of recombinant poly-nucleosomal arrays by p12 CTD peptides (Fig 9). Streptavidin sensor probes coated with biotinylated peptide ligands were immersed in ‘analyte’ solutions containing the in vitro assembled nucleosomal arrays to observe any potential interactions. The p12 CTD peptide sequences used are highlighted in bold in Fig 5C. A peptide carrying the PFV hCBS sequence was included in the assays as a positive control.
The binding of PFV hCBS and p12 CTD peptides to recombinant H3.3 poly-nucleosomes (Active Motif) was measured using biolayer interferometry on an Octet RED system (Pall ForteBio Corp). The peptides were synthesised with a N-terminal biotin tag and GGGG linker. The Mo-MLV, FeLV and GaLV p12 CTD peptide sequences used are highlighted in bold in Fig 5C. A negative control was included that contained an R66A change in the Mo-MLV p12_M63I CTD peptide. Mo-MLV phos p12_M63I CTD was also synthesised with a phosphorylated S61 residue. […] Equilibrium binding amplitudes were determined by exponential least squares curve fitting of the association phase. […] Equilibrium binding constant (Kd) and maximum specific binding (Bmax) were calculated by fitting the data to a non-linear regression model. […]

[6] = test system: nucleosome binding to immobilised biotinylated hCBS; assay: BLI competition, nucleosome binding to immobilised hCBS; details: soluble peptide 100 μM; three technical replicates
Experimental: A negative control was included that contained an R66A change in the Mo-MLV p12_M63I CTD peptide. […] The biotinylated peptides were loaded onto streptavidin biosensors (Pall ForteBio Corp) at 0.5 μg/ml for 120 s in 10 mM HEPES pH 7.5, 150 mM NaCl, 0.005% (v/v) Tween 20. […] Experiments were performed at 25°C and sample plates were agitated at 1000 rpm. […] For competition assays, soluble non-biotin tagged peptides were added to the nucleosomal arrays at 100 μM to inhibit nucleosome binding prior to recording BLI measurements with biotinylated peptide immobilised on sensor probes.

nucleosomes = details: cited from earlier work
From the text: To identify whether p12 binds to the same nucleosomal docking site as the CBS from PFV Gag, we then tested the ability of p12 CTD peptides to block the binding of nucleosomal arrays to hCBS and vice versa (Fig 9E and 9F).

In the case of O=C1Cc2c([nH]c3ccc(Br)cc23)-c2ccccc2N1 [kenpaullone], the “reduction of GST-p12_M63I phosphorylation by kinase inhibitor” value [1] is given as ~ 3 fold, the “reduction of H2B precipitation by kinase inhibitor” value [2] is given as ~ 3.5 fold and the “inhibition of GSK3” value [3] is given as “inhibits both enzymes”. The “inhibition of CDK5” value [4] was “inhibits both enzymes”.

With CC[C@H](C)[C@H](NC(=O)[C@@H]1CCCN1C(=O)[C@H](CO)NC(=O)[C@@H]1CCCN1C(=O)[C@H](CC(=O)O)NC(=O)CNC(=O)CNC(=O)CNC(=O)CNC(=O)CCCC[C@@H]1SC[C@@H]2NC(=O)N[C@@H]21)C(=O)N[C@@H](C)C(=O)N[C@@H](CO)C(=O)N[C@@H](CCCNC(=N)N)C(=O)N[C@@H](CC(C)C)C(=O)N[C@@H](CCCNC(=N)N)C(=O)NCC(=O)N[C@@H](CCCNC(=N)N)C(=O)N[C@@H](CCCNC(=N)N)C(=O)N[C@@H](CCC(=O)O)C(=O)N1CCC[C@H]1C(=O)N1CCC[C@H]1C(=O)N[C@H](C(=O)O)C(C)C [non-phosphorylated p12_M63I] the “binding to nucleosomal arrays” value [5] was “clear binding to nucleosomes”.

With CC[C@H](C)[C@H](NC(=O)[C@@H]1CCCN1C(=O)[C@H](COP(=O)(O)O)NC(=O)[C@@H]1CCCN1C(=O)[C@H](CC(=O)O)NC(=O)CNC(=O)CNC(=O)CNC(=O)CNC(=O)CCCC[C@@H]1SC[C@@H]2NC(=O)N[C@@H]21)C(=O)N[C@@H](C)C(=O)N[C@@H](CO)C(=O)N[C@@H](CCCNC(=N)N)C(=O)N[C@@H](CC(C)C)C(=O)N[C@@H](CCCNC(=N)N)C(=O)NCC(=O)N[C@@H](CCCNC(=N)N)C(=O)N[C@@H](CCCNC(=N)N)C(=O)N[C@@H](CCC(=O)O)C(=O)N1CCC[C@H]1C(=O)N1CCC[C@H]1C(=O)N[C@H](C(=O)O)C(C)C [phosphorylated p12_M63I] the “binding to nucleosomal arrays” value [5] was “clear binding to nucleosomes”.

In the case of “DPSPMASALRGRREPPY [p12_R66A, soluble Mo-MLV p12 CTD peptide with R66A]”, the “decrease of equilibrium binding of nucleosomes to immobilised hCBS” value [6] is reported as “not hCBS_L539A/R540A or p12_R66A peptides”.

In the case of “NQGGYNAAPRTYQP [hCBS_L539A/R540A, hCBS peptide with L539A/R540A mutations, reference compound]”, the “binding of hCBS peptides to nucleosomes” value (nucleosomes) is given as “prevent binding of hCBS peptides to nucleosomes” and the “decrease of equilibrium binding of nucleosomes to immobilised hCBS” value [6] is given as “not hCBS_L539A/R540A or p12_R66A peptides”.
